Measurements published in ChEMBL document CHEMBL1143043, “Monitoring aminoglycoside-induced conformational changes in 16S rRNA through acrylamide quenching” (Bioorg Med Chem, 2007).

Key:
[1] = Affinity to 2-aminopurine labeled hairpin A-site 16S rRNA by Electrospray ionization mass spectrometry
[2] = Affinity to hairpin A-site 16S rRNA by Electrospray ionization mass spectrometry

NC[C@@H]1O[C@H](O[C@H]2[C@@H](O)[C@H](O[C@@H]3[C@@H](O)[C@H](N)C[C@H](N)[C@H]3O[C@H]3O[C@H](CO)[C@@H](O)[C@H](O)[C@H]3N)O[C@@H]2CO)[C@H](N)[C@@H](O)[C@@H]1O [PAROMOMYCIN]
Kd [1]: 980 nM | Kd [2]: 370 nM
